Assay: mn = molality of the nth substance listed, in mol/kg
Conditions: 100 kPa, Liquid, Vibrating tube method

CCCC[N+]1(C)CCOCC1.O=S(=O)([N-]S(=O)(=O)C(F)(F)F)C(F)(F)F + CC#N
mass density [kg/m3]
Conditions | m1 = 0.00879 | m1 = 0.01653 | m1 = 0.02761 | m1 = 0.03802 | m1 = 0.05226 | m1 = 0.06737 | m1 = 0.08642 | m1 = 0.1101 | m1 = 0.13 | m1 = 0.1623
298.15 K | 778.005 | 779.272 | 781.074 | 782.759 | 785.036 | 787.436 | 790.427 | 794.115 | 797.144 | 802.019
303.15 K | 772.575 | 773.845 | 775.647 | 777.331 | 779.607 | 781.999 | 784.994 | 788.679 | 791.717 | 796.577
308.15 K | 767.12 | 768.39 | 770.192 | 771.873 | 774.153 | 776.549 | 779.543 | 783.226 | 786.253 | 791.135
313.15 K | 761.631 | 762.901 | 764.703 | 766.385 | 768.667 | 771.064 | 774.057 | 777.74 | 780.771 | 785.644
318.15 K | 756.103 | 757.375 | 759.178 | 760.862 | 763.147 | 765.551 | 768.552 | 772.235 | 775.257 | 780.136

CC[N+]1(C)CCOCC1.O=S(=O)([N-]S(=O)(=O)C(F)(F)F)C(F)(F)F + CC#N
mass density [kg/m3]
Conditions | m1 = 0.009434 | m1 = 0.01654 | m1 = 0.02652 | m1 = 0.03788 | m1 = 0.05256 | m1 = 0.06858 | m1 = 0.08695 | m1 = 0.1078 | m1 = 0.1316 | m1 = 0.1634
298.15 K | 778.145 | 779.333 | 780.985 | 782.85 | 785.24 | 787.81 | 790.74 | 794.037 | 797.714 | 802.54
303.15 K | 772.716 | 773.905 | 775.56 | 777.429 | 779.815 | 782.385 | 785.318 | 788.611 | 792.286 | 797.108
308.15 K | 767.263 | 768.452 | 770.11 | 771.974 | 774.365 | 776.944 | 779.877 | 783.146 | 786.836 | 791.661
313.15 K | 761.774 | 762.964 | 764.619 | 766.483 | 768.876 | 771.442 | 774.373 | 777.657 | 781.334 | 786.155
318.15 K | 756.247 | 757.44 | 759.113 | 760.976 | 763.372 | 765.945 | 768.855 | 772.158 | 775.832 | 780.648

Source: the NIST ThermoML archive (doi:10.1021/je400790d)
